Reference: the supplement of paper PMC11208160

Assay: recombinant UMI read abundance after kanamycin selection (control-corrected) (log10(CPM+1)); higher = more efficient recombination; extreme values may be limits of the assay; sequences stand for … in AGTGCAGAGAAAATCGGCCAGTTTTCTCTGCCTGCAGTCCGCATGCCGTGGGACCCCTTGGGTTCTAACCTGTTGCCTAGATTTATGCAGCGGACTGCCTTTCTCCCAAAGTGATAAACCGG…AGGTTGGTTTCACT; site = the 11-nt donor
How it was run: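 In a pooled Escherichia coli screen for the IS621 bridge recombinase, donor and donor-binding-loop pairs were each placed with a 12-nt UMI on a plasmid bearing a promoterless kanamycin gene. This library was co-electroporated with a target plasmid encoding a fixed target and T7-inducible recombinase, and cells were plated either on IPTG (0.07 mM) plus kanamycin or without selection, in two replicates each. Recombinant UMIs were PCR-amplified across the donor–target junction and sequenced, and counts were converted to CPM, averaged over replicates, scaled by control-derived factors and reported as log10(CPM+1).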
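Also: IS621 bridge recombinase in Escherichia coli cells against a fixed T5 target plasmid.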

Sequence	recombinant UMI read abundance (log10)
AGAAACACATGGACCGGTTTTCCCGGTAATCCGTATTTGGT (site AGAAACACTAC)	2.3
AGAAAGACATGGACCGGTTTTCCCGGTAATCCGTATTTGCA (site AGAAAGACTTG)	2.6
AGAAAGACATGGACCGGTTTTCCCGGTAATCCGTATTTGCA (site AGCAAGACTTG)	1.59
AGAAAGACATGGACCGGTTTTCCCGGTAATCCGTATTTGCA (site AGGAAGACTTG)	0.932
AGAAAGACATGGACCGGTTTTCCCGGTAATCCGTATTTGCA (site AGTAAGACTTG)	1.15
AGAAAGGCATGGACCGGTTTTCCCGGTAATCCGTATTTGAT (site AGAAAGGCTAA)	0.418
AGAAAGGCATGGACCGGTTTTCCCGGTAATCCGTATTTGAT (site AGAAAGGCTAC)	0
AGAAAGGCATGGACCGGTTTTCCCGGTAATCCGTATTTGAT (site AGAAAGGCTAG)	0
AGAAAGGCATGGACCGGTTTTCCCGGTAATCCGTATTTGAT (site AGAAAGGCTAT)	2.28
AGAACGCCATGGACCGGTTTTCCCGGTAATCCGTATTTGCC (site AGAACGCCTGG)	0.968
AGAATGACATGGACCGGTTTTCCCGGTAATCCGTATTTGCA (site AGAATGACTTG)	2.63
AGAATGACATGGACCGGTTTTCCCGGTAATCCGTATTTGCA (site AGGAAGACTTG)	1.53
AGAATGTCATGGACCGGTTTTCCCGGTAATCCGTATTTGGG (site AGAATGTCTCC)	2.01
AGAATTTCATGGACCGGTTTTCCCGGTAATCCGTATTTGGG (site AGAATTTCTCC)	0.964
AGACAGCCATGGACCGGTTTTCCCGGTAATCCGTATTTGCA (site AGACAGCCTTG)	1.21
AGACGCACATGGACCGGTTTTCCCGGTAATCCGTATTTGTT (site AGACGCACTAA)	1.79
AGAGAAGCATGGACCGGTTTTCCCGGTAATCCGTATTTGCG (site AGAGAAGCTCG)	3.09
AGAGATCCATGGACCGGTTTTCCCGGTAATCCGTATTTGAA (site AGAGATCCTTT)	2.01
AGAGATTCATGGACCGGTTTTCCCGGTAATCCGTATTTGGC (site AGAGATTCTGC)	2.95
AGAGCTTCATGGACCGGTTTTCCCGGTAATCCGTATTTGGG (site AGAGCTTCTCC)	1.06
AGAGGAGCATGGACCGGTTTTCCCGGTAATCCGTATTTGGC (site AGAGGAGCTGC)	1.01
AGAGGATCATGGACCGGTTTTCCCGGTAATCCGTATTTGCA (site ACAGTATCTTG)	1.59
AGAGGATCATGGACCGGTTTTCCCGGTAATCCGTATTTGCA (site AGAGGATCTTG)	2.04
AGAGGCACATGGACCGGTTTTCCCGGTAATCCGTATTTGAC (site AGAGGCACTGT)	2.32
AGAGTGGCATGGACCGGTTTTCCCGGTAATCCGTATTTGCT (site AGAGTGGCTAG)	2.62

Sequence	recombinant UMI read abundance (log10)
AGAGTGTCATGGACCGGTTTTCCCGGTAATCCGTATTTGCA (site ACAGTATCTTG)	2.56
AGAGTGTCATGGACCGGTTTTCCCGGTAATCCGTATTTGCA (site AGAGTGTCTTG)	3.45
AGATAATCATGGACCGGTTTTCCCGGTAATCCGTATTTGCT (site AGATAATCTAG)	3.3
AGATCATCATGGACCGGTTTTCCCGGTAATCCGTATTTGCT (site AGATCATCTAG)	1.56
AGATCATCATGGACCGGTTTTCCCGGTAATCCGTATTTGCT (site CGATCATCTAG)	0.477
AGATCATCATGGACCGGTTTTCCCGGTAATCCGTATTTGCT (site GGATCATCTAG)	0.911
AGATCATCATGGACCGGTTTTCCCGGTAATCCGTATTTGCT (site TGATCATCTAG)	1.75
AGATGGGCATGGACCGGTTTTCCCGGTAATCCGTATTTGAG (site AGATGGGCTCT)	1.06
AGATTAGCATGGACCGGTTTTCCCGGTAATCCGTATTTGAC (site AGATTAGCTGT)	2.75
AGATTATCATGGACCGGTTTTCCCGGTAATCCGTATTTGGA (site AGATTATCTTC)	1.9
AGATTCTCATGGACCGGTTTTCCCGGTAATCCGTATTTGTG (site AGATTCTCTCA)	2.63
AGCAGAGCATGGACCGGTTTTCCCGGTAATCCGTATTTGAG (site AGCAGAGCTCT)	2.54
AGCAGTACATGGACCGGTTTTCCCGGTAATCCGTATTTGAT (site AGCAGTACTAT)	1.79
AGCATTGCATGGACCGGTTTTCCCGGTAATCCGTATTTGAA (site AGCATTGCTTT)	2.4
AGCATTTCATGGACCGGTTTTCCCGGTAATCCGTATTTGAC (site AGCATTTCTGT)	0.795
AGCATTTCATGGACCGGTTTTCCCGGTAATCCGTATTTGAC (site AGCCTTTCTGT)	0
AGCATTTCATGGACCGGTTTTCCCGGTAATCCGTATTTGAC (site AGCGTTTCTGT)	0
AGCATTTCATGGACCGGTTTTCCCGGTAATCCGTATTTGAC (site AGCTTTTCTGT)	0.236
AGCCACCCATGGACCGGTTTTCCCGGTAATCCGTATTTGTT (site AGCCACCCTAA)	0.0153
AGCCACCCATGGACCGGTTTTCCCGGTAATCCGTATTTGTT (site CGCCACCCTAA)	0.026
AGCCACCCATGGACCGGTTTTCCCGGTAATCCGTATTTGTT (site GGCCACCCTAA)	0
AGCCACCCATGGACCGGTTTTCCCGGTAATCCGTATTTGTT (site TGCCACCCTAA)	0
AGCCAGACATGGACCGGTTTTCCCGGTAATCCGTATTTGCA (site AGCCAGACTTG)	2.18
AGCCAGACATGGACCGGTTTTCCCGGTAATCCGTATTTGCA (site AGGAAGACTTG)	0
AGCCCAGCATGGACCGGTTTTCCCGGTAATCCGTATTTGTT (site AGCCAAGCTAA)	0.0134

Sequence	recombinant UMI read abundance (log10)
AGCCCAGCATGGACCGGTTTTCCCGGTAATCCGTATTTGTT (site AGCCCAGCTAA)	0.602
AGCCCAGCATGGACCGGTTTTCCCGGTAATCCGTATTTGTT (site AGCCGAGCTAA)	0.0227
AGCCCAGCATGGACCGGTTTTCCCGGTAATCCGTATTTGTT (site AGCCTAGCTAA)	0.0205
AGCCCCGCATGGACCGGTTTTCCCGGTAATCCGTATTTGTT (site AGCCCCGCTAA)	1.12
AGCCCGCCATGGACCGGTTTTCCCGGTAATCCGTATTTGGG (site AGCCCGCCTCC)	0.00589
AGCCGGCCATGGACCGGTTTTCCCGGTAATCCGTATTTGAT (site AGCCGGCCTAT)	0.00427
AGCCGTACATGGACCGGTTTTCCCGGTAATCCGTATTTGCT (site AGCCGTACTAG)	1.74
AGCCGTACATGGACCGGTTTTCCCGGTAATCCGTATTTGCT (site CGCCGTACTAG)	0.697
AGCCGTACATGGACCGGTTTTCCCGGTAATCCGTATTTGCT (site GGCCGTACTAG)	0
AGCCGTACATGGACCGGTTTTCCCGGTAATCCGTATTTGCT (site TGCCGTACTAG)	1.18
AGCCTAACATGGACCGGTTTTCCCGGTAATCCGTATTTGGG (site AGCCTAACTCC)	0.0227
AGCCTAACATGGACCGGTTTTCCCGGTAATCCGTATTTGTT (site AGCCTAACTAA)	0.00538
AGCCTAACATGGACCGGTTTTCCCGGTAATCCGTATTTGTT (site AGCCTACCTAA)	0.024
AGCCTAACATGGACCGGTTTTCCCGGTAATCCGTATTTGTT (site AGCCTAGCTAA)	0.0126
AGCCTAACATGGACCGGTTTTCCCGGTAATCCGTATTTGTT (site AGCCTATCTAA)	0.00871
AGCCTAGCATGGACCGGTTTTCCCGGTAATCCGTATTTGTT (site AACCTAGCTAA)	0.00661
AGCCTAGCATGGACCGGTTTTCCCGGTAATCCGTATTTGTT (site ACCCTAGCTAA)	0.0311
AGCCTAGCATGGACCGGTTTTCCCGGTAATCCGTATTTGTT (site AGACTAGCTAA)	0.00397
AGCCTAGCATGGACCGGTTTTCCCGGTAATCCGTATTTGTT (site AGCATAGCTAA)	0.00842
AGCCTAGCATGGACCGGTTTTCCCGGTAATCCGTATTTGTT (site AGCCAAGCTAA)	0.0196
AGCCTAGCATGGACCGGTTTTCCCGGTAATCCGTATTTGTT (site AGCCCAGCTAA)	0.00418
AGCCTAGCATGGACCGGTTTTCCCGGTAATCCGTATTTGTT (site AGCCGAGCTAA)	0.0175
AGCCTAGCATGGACCGGTTTTCCCGGTAATCCGTATTTGTT (site AGCCTAACTAA)	0.0384
AGCCTAGCATGGACCGGTTTTCCCGGTAATCCGTATTTGTT (site AGCCTACCTAA)	0.0078
AGCCTAGCATGGACCGGTTTTCCCGGTAATCCGTATTTGTT (site AGCCTAGCTAA)	0.0154
